Laboratory results: PMC6718149, “Structure of GTP cyclohydrolase I from Listeria monocytogenes, a potential anti-infective drug target” (Acta Crystallographica. Section F, Structural Biology …, 2019)

T1: human GTP cyclohydrolase I (Homo sapiens, UniProt P30793)
T1 construct: made in house
T1 sequence (P30793 43-250 limits assumed): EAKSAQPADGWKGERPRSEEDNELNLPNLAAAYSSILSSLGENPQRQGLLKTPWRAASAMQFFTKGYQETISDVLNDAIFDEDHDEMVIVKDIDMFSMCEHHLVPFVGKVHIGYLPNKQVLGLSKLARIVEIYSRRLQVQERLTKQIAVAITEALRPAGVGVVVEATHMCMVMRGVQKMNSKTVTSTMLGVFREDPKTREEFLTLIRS

B1: GTP cyclohydrolase I from Listeria monocytogenes (enzyme, L. monocytogenes)
chain: EQIDKQKIADAVKVILEAVGENPDREGLIDTPMRVARMYEEVFAGLKKDPSVHFDTIFEEQHEELVLVKDIRFSSMCEHHLVPFFGVAHVAYLPQNGRVAGLSKLARVVDDVSRRPQLQERITTTVAEIMMEKLKPLGVMVIMEAEHMCMTIRGVNKPGTKTITSAVRGAFKNDDKLRSEVLALIKHN
modifications: Cys78 and Cys150 oxidized to the disulfide level (in the crystal; zinc lost)
notes: GTP cyclohydrolase I (folE), L. monocytogenes ATCC BAA-679; the natural stretch begins at Glu (first cloned triplet GAG) and runs to the stop codon; the printed Cys78 and Cys150 fit numbering with this Glu as residue 2; D5-symmetric homodecamer; also called LmGTPCHI; His6-EK-LmGTP-CHI; source: E. coli XL1-Blue (plasmid pNCO-His6-EK-LmGTP-CHI), purified (nickel-NTA agarose, Superdex 200); not …

Key:
[1] = molecular target: T1, human GTP cyclohydrolase I; experiment: Photometric counterscreen against human GTP cyclohydrolase I (330 nm); format: biochemical; details: human GTP cyclohydrolase I (blue curve); 200 µM GTP, pH 7.5; calculated with DynaFit
Procedure: (§1) In order to explore the druggability of the protein, we screened a small library of about 9000 highly diverse compounds (Bracher et al., 1998[▸]). Assays were run in 384-well plates and were monitored photometrically at 330 nm. Hits were rescreened against GTP cyclohydrolase I from L. monocytogenes and human GTP cyclohydrolase I, and IC50 values were determined using the photometric assay. […] Although stronger inhibitors have been reported down to a K i of 5.4 nM (Tanaka et al., 2005[▸]), all of the inhibitors reported so far are substrate or product analogs.
(§2) Assay mixtures contained 50 mM Tris hydrochloride, pH 7.5, 100 mM KCl, 200 µM GTP, and protein. They were monitored photometrically at 330 nm.
(§3) S2. High throughput screen
(§4) A substance library of 9,000 test compounds (courtesy of BASF Crop protection division, Ludwigshafen, Germany) was tested against GTP cyclohydrolase I protein from L. monocytogenes in 384 well clear bottom plates (Corning, polystyrol, flat-bottom, non-treated surface). 32 wells of each plate were used as “signal”, i.e. as positive control with enzyme and substrate, but without test compound. 32 wells of each plate were used as “control”, i.e. as negative control with substrate but without enzyme or test compound. Each of the remaining 320 wells contained app. 50 µM test compound (depending on the molecular weight of a given test substance) in 3 µL DMSO. The compounds were pipetted with a Hamilton Starlet robot (Hamilton Germany GmbH, Planegg, Germany) with a 96-tip pipetting block. Enzyme (final concentration 8.7 µM) and substrate (final concentration 200 µM) were supplied in separate solutions that both contained 50 mM Tris hydrochloride, pH 7.5 and 100 mM KCl. 30 µL per well of both solutions were filled in to the assay plates with an 8-fold dispenser (Bio Tek Germany, Bad Friedrichshall, Germany) and the plates were then centrifuged for 1 min at 1,000 rpm and room temperature. The reaction was monitored with a SpectraMax M5 plate reader photometer (Molecular Devices GmbH, Biberach a. d. Riss, Germany) at 330 nm and room temperature for 30 min. […]

[2] = molecular target: T2, GTP cyclohydrolase I from L. monocytogenes (Listeria monocytogenes serovar 1/2a, UniProt Q8Y5X1); experiment: Photometric GTP cyclohydrolase I inhibition assay (330 nm), IC50 determination of screening hits; format: biochemical; details: GTP cyclohydrolase I from L. monocytogenes (red curve); 200 µM GTP, pH 7.5; calculated with DynaFit
T2 construct: made in house; host or cells: Escherichia coli XL1-Blue, plasmid pNCO-His6-EK-LmGTP-CHI
Procedure: as §1, §2, §3, §4

[3] = molecular target: the molecule itself; experiment: crystal structure; sitting-drop vapor diffusion, 1.33 M sodium citrate, 0.1 M HEPES pH 7.3; 2.4 Å; one decamer in the asymmetric unit

Row | Molecule | IC50 [1] [µM] | IC50 [2] [µM] | stoichiometry N [3]
1 | C=CCNc1nc(N)c(C(=O)c2ccc3c(c2)OCO3)s1 [(a)] | > 500 | 13 ± 1 | –
2 | O=C1CS/C(=N/N=C/c2ccc(-c3ccc(Cl)cc3)o2)N1 [(b)] | 238 ± 40 | 27 ± 6 | –
3 | Cc1ccc(OC(=S)Nc2ccc(NC(=S)Oc3ccc(C)cc3)cc2)cc1 [(c)] | 327 ± 66 | 36 ± 3 | –
4 | B1 | – | – | 10
